Experimental data as given in ChEMBL document CHEMBL1201862, “PubChem BioAssay data set” (2004).
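Five compound concentrations were applied to cells in 96-well plates for 48 hours; endpoints were derived by simple linear interpolation of the resulting dose-response curve. Abbreviation: GI50, concentration required for 50% inhibition of growth.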 Calls of active or inactive are those of the source. Cut-off read from the data, not from the text of the source: active = GI50 up to about 1.1 µM and inactive = higher.

How the values were obtained:
Assay in all cases: NCI anticancer screen, dose series, 48 h
IGROV-1 = test system: IGROV-1
OVCAR-5 = test system: OVCAR-5
SK-MEL-28 = test system: SK-MEL-28
SF-268 = test system: SF-268
A498 = test system: A498
Malme-3M = test system: Malme-3M
SNB-75 = test system: SNB-75
UACC-62 = test system: UACC-62
OVCAR-4 = test system: OVCAR-4
CCRF-CEM = test system: CCRF-CEM
RXF 393 = test system: RXF 393
SW-620 = test system: SW-620
RPMI-8226 = test system: RPMI-8226
HL-60 = test system: HL-60
HT-29 = test system: HT-29
SK-OV-3 = test system: SK-OV-3
SNB-19 = test system: SNB-19
K562 = test system: K562
A549 = test system: A549
MOLT-4 = test system: MOLT-4

| SMILES | GI50 (IGROV-1) | GI50 (OVCAR-5) | GI50 (SK-MEL-28) | GI50 (SF-268) | GI50 (A498) | GI50 (Malme-3M) | GI50 (SNB-75) | GI50 (UACC-62) | GI50 (OVCAR-4) | GI50 (CCRF-CEM) | GI50 (RXF 393) | GI50 (SW-620) | GI50 (RPMI-8226) | GI50 (HL-60) | GI50 (HT-29) | GI50 (SK-OV-3) | GI50 (SNB-19) | GI50 (K562) | GI50 (A549) | GI50 (MOLT-4) |
| --- | --- | --- | --- | --- | --- | --- | --- | --- | --- | --- | --- | --- | --- | --- | --- | --- | --- | --- | --- | --- |
| O=C1NC(c2cccc3ccccc23)Nc2ccc(O)cc21 (centres undefined) | 35.1 µM (inactive) | 32.6 µM (inactive) | 47.1 µM (inactive) | 35.6 µM (inactive) | 23.9 µM (inactive) | 24.4 µM (inactive) | 38.6 µM (inactive) | 21 µM (inactive) | 1.1 µM (active) | 20.2 µM (inactive) | 31 µM (inactive) | 17.6 µM (inactive) | 24.2 µM (inactive) | 6.14 µM (inactive) | 40.5 µM (inactive) | 41.1 µM (inactive) | 58.1 µM (inactive) | 8.57 µM (inactive) | 33.4 µM (inactive) | 9.48 µM (inactive) |
| CC1CCC(O)/C=C/C(=O)OC(C)C(O)/C=C/C(=O)O1 (centres undefined) | > 100 µM (inactive) | > 100 µM (inactive) | > 100 µM (inactive) | > 100 µM (inactive) | > 100 µM (inactive) | > 100 µM (inactive) | > 100 µM (inactive) | > 100 µM (inactive) | > 100 µM (inactive) | 25.4 µM (inactive) | > 62.1 µM (inactive) | 60.4 µM (inactive) | 74.1 µM (inactive) | 37.2 µM (inactive) | > 100 µM (inactive) | > 100 µM (inactive) | > 100 µM (inactive) | 41.9 µM (inactive) | > 100 µM (inactive) | 19.1 µM (inactive) |
| OCCOCn1nc(-c2ccccc2)nc1-c1cnccn1 | > 100 µM (inactive) | > 100 µM (inactive) | > 100 µM (inactive) | > 100 µM (inactive) |  |  | 35 µM (inactive) | > 100 µM (inactive) | > 100 µM (inactive) | > 100 µM (inactive) | > 100 µM (inactive) | > 100 µM (inactive) | > 100 µM (inactive) | > 100 µM (inactive) | > 100 µM (inactive) | > 100 µM (inactive) | > 100 µM (inactive) | > 100 µM (inactive) | > 100 µM (inactive) | > 100 µM (inactive) |
| CCCCC(NC(=O)CC)C(=O)O (centres undefined) | > 100 µM (inactive) | > 100 µM (inactive) | > 100 µM (inactive) | > 100 µM (inactive) | > 100 µM (inactive) | > 100 µM (inactive) | > 100 µM (inactive) | > 100 µM (inactive) | > 100 µM (inactive) | > 100 µM (inactive) |  | > 100 µM (inactive) | > 100 µM (inactive) | > 100 µM (inactive) | > 100 µM (inactive) | > 100 µM (inactive) | > 100 µM (inactive) | > 100 µM (inactive) | > 100 µM (inactive) | > 100 µM (inactive) |
| Cn1ccc(C(=O)NCCN(CCNC(=O)c2ccn(C)c(=O)c2O)CCNC(=O)c2ccn(C)c(=O)c2O)c(O)c1=O | > 100 µM (inactive) | 29.9 µM (inactive) | > 100 µM (inactive) | > 100 µM (inactive) | > 100 µM (inactive) | > 100 µM (inactive) | > 100 µM (inactive) | > 100 µM (inactive) | > 100 µM (inactive) | > 100 µM (inactive) | > 100 µM (inactive) | > 100 µM (inactive) | > 100 µM (inactive) | > 100 µM (inactive) | > 100 µM (inactive) | > 100 µM (inactive) | > 100 µM (inactive) | > 100 µM (inactive) | > 100 µM (inactive) |  |
| C#CCn1c(=O)c(C#N)c(O)c2cc3ccccc3nc21 | > 100 µM (inactive) | > 84.9 µM (inactive) | > 100 µM (inactive) | > 31.6 µM (inactive) | > 100 µM (inactive) | > 100 µM (inactive) | > 100 µM (inactive) | > 100 µM (inactive) | > 10 µM (inactive) | > 100 µM (inactive) | > 100 µM (inactive) | > 100 µM (inactive) | > 100 µM (inactive) | > 100 µM (inactive) | > 100 µM (inactive) | > 100 µM (inactive) | > 100 µM (inactive) | > 100 µM (inactive) | > 100 µM (inactive) | > 100 µM (inactive) |
| O=C(NC1C(O)C(O)C(CO)OC1n1cc(F)c(=O)[nH]c1=O)OCc1ccccc1 (centres undefined) |  | > 100 µM (inactive) | > 100 µM (inactive) | > 100 µM (inactive) | > 100 µM (inactive) | > 100 µM (inactive) | > 100 µM (inactive) |  | > 100 µM (inactive) | 22.2 µM (inactive) | > 100 µM (inactive) | > 100 µM (inactive) | > 100 µM (inactive) | > 100 µM (inactive) | > 100 µM (inactive) | > 100 µM (inactive) | > 100 µM (inactive) |  | > 100 µM (inactive) |  |
| NCCCCN(CCCN)Cc1ccccc1 | 60 µM (inactive) | > 100 µM (inactive) | > 100 µM (inactive) | > 100 µM (inactive) | > 100 µM (inactive) |  | 20.1 µM (inactive) | > 100 µM (inactive) | > 100 µM (inactive) | > 100 µM (inactive) | > 100 µM (inactive) | > 100 µM (inactive) | > 100 µM (inactive) | > 100 µM (inactive) | > 100 µM (inactive) | > 100 µM (inactive) | > 100 µM (inactive) | > 100 µM (inactive) | > 100 µM (inactive) | > 100 µM (inactive) |
| CCN1CCC(O)(/C=C/c2ccccc2C)C(C(=O)/C=C/c2ccccc2C)C1 (centres undefined) | 3.62 µM (inactive) | 1.97 µM (inactive) | 2.39 µM (inactive) | 3.87 µM (inactive) | 1.91 µM (inactive) | 4.08 µM (inactive) | 4.92 µM (inactive) | 2.97 µM (inactive) | 3.67 µM (inactive) | 1.85 µM (inactive) | 1.92 µM (inactive) | 2.74 µM (inactive) |  | 2.01 µM (inactive) | 2.63 µM (inactive) | 6.14 µM (inactive) |  | 3.07 µM (inactive) | 3.1 µM (inactive) | 2.38 µM (inactive) |
| CCN(CC)CCN(C(=O)c1ccc(F)cc1)c1ccccc1N | > 10 µM (inactive) | > 10 µM (inactive) | > 10 µM (inactive) | > 10 µM (inactive) | > 10 µM (inactive) | > 10 µM (inactive) | > 10 µM (inactive) | > 10 µM (inactive) | > 10 µM (inactive) | > 10 µM (inactive) | > 10 µM (inactive) | > 10 µM (inactive) | > 10 µM (inactive) | > 10 µM (inactive) | > 10 µM (inactive) | > 10 µM (inactive) | > 10 µM (inactive) | > 10 µM (inactive) | > 10 µM (inactive) | > 10 µM (inactive) |
| Nc1ccc(C2(c3ccc(N)cc3)C3CC4CC(C3)CC2C4)cc1 | 9.59 µM (inactive) | 15.8 µM (inactive) | 14.9 µM (inactive) | 1.57 µM (inactive) | 21 µM (inactive) |  |  | 16.3 µM (inactive) | 14.3 µM (inactive) | 3.76 µM (inactive) | 2.74 µM (inactive) | 11.4 µM (inactive) |  | 19.2 µM (inactive) | 0.998 µM (active) | 13.4 µM (inactive) | 14.6 µM (inactive) | 10.3 µM (inactive) |  | 4.95 µM (inactive) |
| CCN(CC)Cc1ccc2cccnc2c1O | 2.77 µM (inactive) | 10.3 µM (inactive) | 7.35 µM (inactive) | 22.6 µM (inactive) | 16.3 µM (inactive) | 2.81 µM (inactive) | 0.577 µM (active) | 5.92 µM (inactive) | 16.4 µM (inactive) | 0.713 µM (active) | 93.1 µM (inactive) | 3.3 µM (inactive) | 3.1 µM (inactive) | 0.43 µM (active) | 2.9 µM (inactive) | 7.01 µM (inactive) | 18.5 µM (inactive) | 2.15 µM (inactive) | 6.34 µM (inactive) | 1.93 µM (inactive) |
| O=C(NC1C2CC3CC(C2)CC1C3)c1cc(/C=C/c2ccccc2)nc(S)n1 (centres undefined) | > 100 µM (inactive) | > 100 µM (inactive) | > 100 µM (inactive) | > 100 µM (inactive) | > 100 µM (inactive) | > 100 µM (inactive) | > 100 µM (inactive) | > 100 µM (inactive) | > 100 µM (inactive) | > 100 µM (inactive) | > 100 µM (inactive) | > 100 µM (inactive) | > 100 µM (inactive) | > 100 µM (inactive) |  | > 100 µM (inactive) | > 100 µM (inactive) | > 100 µM (inactive) | > 100 µM (inactive) | > 100 µM (inactive) |
| CCCCC1=C(Br)C(=C(Br)Br)OC1=O | 2.25 µM (inactive) | 16.5 µM (inactive) | 2.78 µM (inactive) | 2.61 µM (inactive) | 15.2 µM (inactive) | 2.25 µM (inactive) | 5.64 µM (inactive) | 2.42 µM (inactive) | 1.79 µM (inactive) | 2.45 µM (inactive) | 2.09 µM (inactive) | 3.34 µM (inactive) | 0.379 µM (active) | 1.85 µM (inactive) | 3.08 µM (inactive) | 17.6 µM (inactive) | 7.89 µM (inactive) | 3.32 µM (inactive) | 17.1 µM (inactive) | 1.83 µM (inactive) |
| COC(=O)C1OC(Oc2cc(O)c3c(=O)cc(-c4ccc(O)cc4)oc3c2)C(O)C(O)C1O (centres undefined) | > 100 µM (inactive) | > 100 µM (inactive) | > 100 µM (inactive) | > 100 µM (inactive) | > 100 µM (inactive) | > 100 µM (inactive) | > 100 µM (inactive) | > 100 µM (inactive) | > 100 µM (inactive) | > 100 µM (inactive) | > 100 µM (inactive) | > 100 µM (inactive) | > 100 µM (inactive) | > 100 µM (inactive) | > 100 µM (inactive) | > 100 µM (inactive) | > 100 µM (inactive) | > 100 µM (inactive) | > 100 µM (inactive) | > 100 µM (inactive) |
